Measurements from patent US20260015339A1, “CALIX[4]ARENES WITH HIGH ANTICANCER ACTIVITY” (UNIVERSITE GRENOBLE ALPES, priority 2023, published 2026).

Columns and labels:
Test in all cases: PROLiFiler-Cell Panel Screening (CellTiterGlo)
Format in all cases: cell-based
A498 = conditions: Homo sapiens; Kidney, A498, 72 hours
Protocol: (§1) For the assays, cells were seeded in white cell culture-treated flat and clear bottom 384-well multiwall plates and incubated at 37° C. overnight before the calix[4]arene of the formula (2) or the reference compound were added. After incubation for 72 hours at 37° C. at 5% or 10% CO2 depending on the medium, cell plates were equilibrated to room temperature (i.e. 20° C.) for one hour, CellTiterGlo® reagent from the firm Promega was added and luminescence was measured approximately an hour later using a luminometer.
(§2) Raw data were converted into percent cell viability relative to the high and low control, which were set to 100% and 0%, respectively.

SNU840 = conditions: SNU-840; Ovary, SNU840, 72 hours
Protocol: as §1, §2

KARPAS 299 = conditions: Homo sapiens; Blood, KARPAS 299, 72 hours
Protocol: as §1, §2

U87MG = conditions: Homo sapiens, U-87 MG, Brain, 72 hours
Protocol: as §1, §2

LnCap = conditions: Homo sapiens, Prostate, 72 hours
Protocol: as §1, §2

A375 = conditions: Homo sapiens, A-375; Skin, A375, 72 hours
Protocol: as §1, §2

Caki-2 = conditions: Homo sapiens; Kidney, Caki-2, 72 hours
Protocol: as §1, §2

DV90 = conditions: Homo sapiens, DV-90; Lung, DV90, 72 hours
Protocol: as §1, §2

SiHa = conditions: Homo sapiens, Cervix, 72 hours
Protocol: as §1, §2

HCT116 = conditions: Homo sapiens, HCT-116; Colon, HCT116, 72 hours
Protocol: as §1, §2

SW620 = conditions: Homo sapiens, SW-620; Colon, SW620, 72 hours
Protocol: as §1, §2

HeLa = conditions: Homo sapiens, Cervix, 72 hours
Protocol: as §1, §2

HT-1080 = conditions: Homo sapiens; Fibrosarcoma, HT-1080, 72 hours
Protocol: as §1, §2

BEN = conditions: Lung, 72 hours
Protocol: as §1, §2

HT-29 = conditions: Homo sapiens; Colon, HT-29, 72 hours
Protocol: as §1, §2

LOU-NH91 = conditions: Lung, LOU-NH91, 72 hours
Protocol: as §1, §2

MDA MB 435 = conditions: Homo sapiens; Skin, MDA MB 435, 72 hours
Protocol: as §1, §2

U118MG = conditions: Homo sapiens, U-118-MG, Brain, 72 hours
Protocol: as §1, §2

SW480 = conditions: Homo sapiens; Colon, SW480, 72 hours
Protocol: as §1, §2

HCC 1569 = conditions: Homo sapiens, HCC1569; Breast, HCC 1569, 72 hours
Protocol: as §1, §2

NCI-H1563 = conditions: Homo sapiens; Lung, NCI-H1563, 72 hours
Protocol: as §1, §2

H4 = conditions: Brain, H4, 72 hours
Protocol: as §1, §2

T84 = conditions: Homo sapiens; Colon, T84, 72 hours
Protocol: as §1, §2

HCC38 = conditions: Homo sapiens; Breast, HCC38, 72 hours
Protocol: as §1, §2

MV4-11 = conditions: Homo sapiens; Blood, MV4-11, 72 hours
Protocol: as §1, §2

HCT-15 = conditions: Homo sapiens; Colon, HCT-15, 72 hours
Protocol: as §1, §2

A2058 = conditions: Homo sapiens; Skin, A2058, 72 hours
Protocol: as §1, §2

A172 = conditions: Homo sapiens, A 172; Brain, A172, 72 hours
Protocol: as §1, §2

U251MG = conditions: Homo sapiens, U-251, Brain, 72 hours
Protocol: as §1, §2

DLD-1 = conditions: Homo sapiens; Colon, DLD-1, 72 hours
Protocol: as §1, §2

AsPC-1 = conditions: Homo sapiens, ASPC1; Pancreas, AsPC-1, 72 hours
Protocol: as §1, §2

HuH7 = conditions: Homo sapiens, Huh-7; Liver, HuH7, 72 hours
Protocol: as §1, §2

SK-OV3 = conditions: Homo sapiens, SK-OV-3; Ovary, SK-OV3, 72 hours
Protocol: as §1, §2

SW-1783 = conditions: Homo sapiens, SW1783; Brain, SW-1783, 72 hours
Protocol: as §1, §2

NCI-H1573 = conditions: Homo sapiens; Lung, NCI-H1573, 72 hours
Protocol: as §1, §2

DU-145 = conditions: Homo sapiens; Prostate, DU-145, 72 hours
Protocol: as §1, §2

U2OS = conditions: Homo sapiens, Bone, 72 hours
Protocol: as §1, §2

For CCCOc1c2cccc1Cc1cccc(c1OCc1nccn1C)Cc1cccc(c1OCCC)Cc1cccc(c1OCc1nccn1C)C2 [(2)], the IC50 (A498) was 1720 nM, the IC50 (SNU840) was 1150 nM and the IC50 (KARPAS 299) was 1480 nM. The IC50 (U87MG) was 2460 nM, the IC50 (LnCap) was 1190 nM and the IC50 (A375) was 1170 nM. The IC50 (Caki-2) was 2610 nM, the IC50 (DV90) was 2160 nM and the IC50 (SiHa) was 1250 nM. It also gave an IC50 (HCT116) of 950 nM, an IC50 (SW620) of 1760 nM and an IC50 (HeLa) of 1700 nM. It also gave an IC50 (HT-1080) of 1900 nM, an IC50 (BEN) of 3680 nM and an IC50 (HT-29) of 1200 nM. For the same compound, the IC50 (LOU-NH91) was 652 nM, the IC50 (MDA MB 435) was 2770 nM and the IC50 (U118MG) was 2030 nM. For the same compound, the IC50 (SW480) was 1520 nM, the IC50 (HCC 1569) was 2960 nM and the IC50 (NCI-H1563) was 3440 nM. The IC50 (H4) was 2900 nM, the IC50 (T84) was 2440 nM and the IC50 (HCC38) was 2530 nM. The IC50 (MV4-11) was 671 nM, the IC50 (HCT-15) was 2020 nM and the IC50 (A2058) was 938 nM. For the same compound, the IC50 (A172) was 1210 nM, the IC50 (U251MG) was 3530 nM and the IC50 (DLD-1) was 1080 nM. It also gave an IC50 (AsPC-1) of 834 nM, an IC50 (HuH7) of 543 nM and an IC50 (SK-OV3) of 1620 nM. The IC50 (SW-1783) was 3380 nM, the IC50 (NCI-H1573) was 2210 nM and the IC50 (DU-145) was 1930 nM. The IC50 (U2OS) was 1060 nM.

Compound CC(C)C[C@H](NC(=O)[C@H](Cc1ccccc1)NC(=O)c1cnccn1)B(O)O [bortezomib, reference compound] has an IC50 (A498) of 4.53 nM, an IC50 (SNU840) of 5.89 nM and an IC50 (KARPAS 299) of 3.96 nM. The IC50 (U87MG) was 8.02 nM, the IC50 (LnCap) was 14.1 nM and the IC50 (A375) was 5.44 nM. For the same compound, the IC50 (Caki-2) was 12.8 nM, the IC50 (DV90) was 7.37 nM and the IC50 (SiHa) was 7.41 nM. For the same compound, the IC50 (HCT116) was 6.78 nM, the IC50 (SW620) was 4.74 nM and the IC50 (HeLa) was 18.7 nM. For the same compound, the IC50 (HT-1080) was 13.8 nM, the IC50 (BEN) was 53.1 nM and the IC50 (HT-29) was 5.99 nM. It also gave an IC50 (LOU-NH91) of 7.04 nM, an IC50 (MDA MB 435) of 4.3 nM and an IC50 (U118MG) of 4.14 nM. The IC50 (SW480) was 5.29 nM, the IC50 (HCC 1569) was 5.15 nM and the IC50 (NCI-H1563) was 19.5 nM. It also gave an IC50 (H4) of 8.36 nM, an IC50 (T84) of 12.1 nM and an IC50 (HCC38) of 5.41 nM. For the same compound, the IC50 (MV4-11) was 3.13 nM, the IC50 (HCT-15) was 9.25 nM and the IC50 (A2058) was 9.24 nM. The IC50 (A172) was 4.77 nM, the IC50 (U251MG) was 9.16 nM and the IC50 (DLD-1) was 6.83 nM. The IC50 (AsPC-1) was 12.5 nM, the IC50 (HuH7) was 4.3 nM and the IC50 (SK-OV3) was 24 nM. For the same compound, the IC50 (SW-1783) was 8.6 nM, the IC50 (NCI-H1573) was 16.7 nM and the IC50 (DU-145) was 6.8 nM. It also gave an IC50 (U2OS) of 5.83 nM.
